Test results: patent US20110152088A1, “Herbicidal Composition Comprising Flufenacet” (BAYER CROPSCIENCE AG, priority 2009, published 2011)

What was measured:
MATCH [1] = assay: Greenhouse trial: different sowing depths on PE application (test method 10); type: in vivo, Matricaria chamomilla; details: g of AS/ha: (A) 90, (B) 1200, (C) 140, (A)+(B)+(C) 90 + 1200 + 140; for activity MATCH 5 mm: sowing depth 5 mm; for activity MATCH 20 mm: sowing depth 20 mm
Procedure: (§1) In the standard design of the test, seeds of various broad-leaved weed and weed grass biotypes (origins) were sown in a 8-13 cm diameter pot filled with natural soil of a standard field soil (loamy silt; non-sterile) and covered with a covering soil layer of about 1 cm. The pots were then cultivated in a greenhouse (12-16 h of light, temperature day 20-22° C., night 15-18° C.) until the time of application. The pots were treated on a laboratory track sprayer with spray liquors comprising the compositions according to the invention, mixtures of the prior art or components used individually. Application of the active compounds or active compound combinations formulated as WG, WP, EC or otherwise was carried out at the appropriate growth stages of the plants. The application rate for the spray application was 100-600 l of water/ha. After the treatment, the plants were returned to the greenhouses.
(§2) About 3 weeks after the application, the soil action or/and foliar action was assessed visually according to a scale of 0-100% in comparison to an untreated comparative group: 0%=no noticeable effect compared to the untreated comparative group; 100%=full effect compared to the untreated comparative group.
(§3) (notes: the term “seeds” also includes vegetative propagation forms such as, for example, rhizome pieces; abbreviations used: h light=hours of illumination, g of AS/ha=gram of active substance per hectare, I/ha=liter per hectare, S=sensitive, R=resistant) • 1. Pre-emergence action against weeds: seeds of various broad-leaved weed and weed grass biotypes (origins) were sown in a 8-13 cm diameter pot filled with natural soil of a standard field soil (loamy silt; non-sterile) and covered with a covering soil layer of about 1 cm. The pots were then cultivated in a greenhouse (12-16 h of light, temperature day 20-22° C., night 15-18° C.) until the time of application. The pots were treated at the BBCH stage 00-10 of the seeds/plants on a laboratory track sprayer with spray liquors comprising the compositions according to the invention, mixtures or components used individually, as WG, WP, EC or other formulations. The application rate for the spray application was 100-600 l of water/ha. After the treatment, the plants were returned to the greenhouses and, when required, treated with fertilizer and watered. • 2. Post-emergence action against weeds: seeds of various broad-leaved weed and weed grass biotypes (origins) were sown in a 8-13 cm diameter pot filled with natural soil of a standard field soil (loamy silt; non-sterile) and covered with a covering soil layer of about 1 cm. The pots were then cultivated in a greenhouse (12-16 h of light, temperature day 20-22° C., night 15-18° C.) until the time of application. The pots were treated at various BBCH stages between 11-25 of the seeds/plants, i.e. generally between two to three weeks after the start of the cultivation, on a laboratory track sprayer with spray liquors comprising the compositions according to the invention, mixtures or components used individually, as WG, WP, EC or other formulations. The application rate for the spray application was 100-600 l of water/ha. After the treatment, the plants were returned to the greenhouses and, when required, treated with fertilizer and watered. • 3. Pre-emergence action against weeds with and without incorporation of active compound: seeds of various broad-leaved weed and weed grass biotypes (origins) were sown in a 8-13 cm diameter pot filled with natural soil of a standard field soil (loamy silt; non-sterile). […]

POAAN [2] = assay: Greenhouse trial: PO application (test methods 2 and 5); type: in vivo, Poa annua; details: g of AS/ha: (A) 120, (B) 1600, (C) 140, (A)+(B)+(C) 120 + 1600 + 140
Procedure: as §1, §2
(§4) (notes: the term “seeds” also includes vegetative propagation forms such as, for example, rhizome pieces; abbreviations used: h light=hours of illumination, g of AS/ha=gram of active substance per hectare, I/ha=liter per hectare, S=sensitive, R=resistant) • 1. Pre-emergence action against weeds: seeds of various broad-leaved weed and weed grass biotypes (origins) were sown in a 8-13 cm diameter pot filled with natural soil of a standard field soil (loamy silt; non-sterile) and covered with a covering soil layer of about 1 cm. The pots were then cultivated in a greenhouse (12-16 h of light, temperature day 20-22° C., night 15-18° C.) until the time of application. […]

LOLSS = assay: Greenhouse trial: resistant biotypes following PE application (test method 9); type: in vivo, Lolium species; details: g of AS/ha: (A) 90, (B) 1200, (C) 140, (A)+(B)+(C) 90 + 1200 + 140, iodosulfuron 10; for activity LOLSS resistant / activity LOLSS sensitive: PE; for activity LOLSS resistant: resistant biotype; for activity LOLSS sensitive: sensitive biotype
Procedure: as §1, §2, §3

MATCH [3] = assay: Greenhouse trial: different soil types (test method 8); type: in vivo, Matricaria chamomilla; details: g of AS/ha: (A) 120, (B) 1200, (C) 140, (A)+(B)+(C) 120 + 1200 + 140
Procedure: as §1, §2, §3

LOLPE [4] = assay: as above; type: in vivo, Lolium perenne; details: g of AS/ha: (A) 120, (B) 1200, (C) 90, (A)+(B)+(C) 120 + 1200 + 90
Procedure: as §1, §2, §3

LOLPE [5] = assay: Greenhouse trial: PE application with different irrigation variants (test method 7); type: in vivo, Lolium perenne; details: g of AS/ha: (A) 120, (B) 1200, (C) 140, (A)+(B)+(C) 120 + 1200 + 140
Procedure: as §1, §2, §3

STEME = assay: Greenhouse trial: resistant biotypes following PE application (test method 9); type: in vivo, Stellaria media; details: g of AS/ha: (A) 90, (B) 1200, (C) 140, (A)+(B)+(C) 90 + 1200 + 140, iodosulfuron 10; for activity STEME resistant / activity STEME sensitive: PE; for activity STEME resistant: resistant biotype; for activity STEME sensitive: sensitive biotype
Procedure: as §1, §2, §3

MATCH [6] = assay: Greenhouse trial: PE application with different irrigation variants (test method 7); type: in vivo, Matricaria chamomilla; details: g of AS/ha: (A) 120, (B) 1200, (C) 140, (A)+(B)+(C) 120 + 1200 + 140
Procedure: as §1, §2, §3

APESV [7] = assay: Greenhouse trial: PO application (test methods 2 and 5); type: in vivo, Apera Spica-venti; details: g of AS/ha: (A) 120, (B) 1600, (C) 140, (A)+(B)+(C) 120 + 1600 + 140
Procedure: as §1, §2, §4

AVEFA [8] = assay: Greenhouse trial: PE application with different irrigation variants (test method 7); type: in vivo, Avena fatua; details: g of AS/ha: (A) 120, (B) 1200, (C) 140, (A)+(B)+(C) 120 + 1200 + 140
Procedure: as §1, §2, §3

APESV [9] = assay: Greenhouse trial: different sowing depths on PE application (test method 10); type: in vivo, Apera Spica-venti; details: g of AS/ha: (A) 90, (B) 1200, (C) 140, (A)+(B)+(C) 90 + 1200 + 140; for activity APESV 5 mm: sowing depth 5 mm; for activity APESV 20 mm: sowing depth 20 mm
Procedure: as §1, §2, §3

LOLPE [10] = assay: Greenhouse trial: PE application vs application 7 days prior to sowing (test method 6); type: in vivo, Lolium perenne
Procedure: as §1, §2, §3

AVEFA [11] = assay: as above; type: in vivo, Avena fatua
Procedure: as §1, §2, §3

POAAN [12] = assay: Greenhouse trial: PE soil application vs incorporation into the soil (test methods 1, 3 and 4); type: in vivo, Poa annua; details: g of AS/ha: (A) 120, (B) 1200, (C) 140, (A)+(B)+(C) 120 + 1200 + 140
Procedure: as §1, §2, §3

HORVS [13] = assay: Greenhouse trial: PO application (test methods 2 and 5); type: in vivo, Hordeum vulgare, summer barley; details: g of AS/ha: (A) 120, (B) 1600, (C) 140, (A)+(B)+(C) 120 + 1600 + 140
Procedure: as §1
as §2, with “group. […]” for “group.”

HORVS [14] = assay: Greenhouse trial: PE application vs application 7 days prior to sowing (test method 6); type: in vivo, Hordeum vulgare, summer barley; details: g of AS/ha: (A) 90, (B) 1200, (C) 140, mixture 90 + 1200 + 140
Procedure: as §1
as §2, with “group. […]” for “group.”

HORVS [15] = assay: Greenhouse trial: different soil types (test method 8); type: in vivo, Hordeum vulgare, summer barley; details: g AS/ha: (A) 120, (B) 1200, (C) 140, (A)+(B)+(C) 120 + 1200 + 140
Procedure: as §1, §2, §4

TRZAS [16] = assay: Greenhouse trial: PE soil application vs incorporation into the soil (test methods 1, 3 and 4); type: in vivo, Triticum aestivum, summer wheat; details: g of AS/ha: (A) 120, (B) 1200, (C) 140, (A)+(B)+(C) 120 + 1200 + 140
Procedure: as §1
as §2, with “group. […]” for “group.”

TRZAS [17] = assay: Greenhouse trial: PE application vs application 7 days prior to sowing (test method 6); type: in vivo, Triticum aestivum, summer wheat; details: g of AS/ha: (A) 90, (B) 1200, (C) 140, (A)+(B)+(C) 90 + 1200 + 140
Procedure: as §1
as §2, with “group. […]” for “group.”

[18] = PE application, g of AS/ha: (A) 90, (B) 1200, (C) 140, mixture 90 + 1200 + 140
[19] = application 7 days prior to sowing, g of AS/ha: (A) 90, (B) 1200, (C) 140, (A)+(B)+(C) 90 + 1200 + 140

Structure (SMILES)	activity MATCH 5 mm (MATCH [1])	activity MATCH 20 mm (MATCH [1])	activity POAAN (POAAN [2])	activity LOLSS resistant (LOLSS)	activity LOLSS sensitive (LOLSS)	activity MATCH IU soil (MATCH [3])	activity MATCH IU/EC73 soil (MATCH [3])	activity LOLPE IU soil (LOLPE [4])	activity LOLPE IU/EC73 soil (LOLPE [4])	activity LOLPE (LOLPE [5]; Irrigation from above)	activity LOLPE (LOLPE [5]; Irrigation from below)	activity STEME resistant (STEME)	activity STEME sensitive (STEME)	activity MATCH (MATCH [6]; Irrigation from above)	activity MATCH (MATCH [6]; Irrigation from below)	activity APESV (APESV [7])	activity AVEFA (AVEFA [8]; Irrigation from above)	activity AVEFA (AVEFA [8]; Irrigation from below)	activity APESV 5 mm (APESV [9])	activity APESV 20 mm (APESV [9])	also measured
CCCN(CCC)C(=O)SCc1ccccc1 [(B) prosulfocarb, S-(phenylmethyl) dipropylcarbamothioate]	0%	0%	30%	65%	85%	10%	0%	0%	0%	10%	5%	40%	70%	0%	0%	20%	5%	10%	50%	20%	Difference of the soil types Δ^D, LOLPE (LOLPE [4]; IU/EC73 soil vs IU soil): Δ^D + 0%; activity LOLPE (LOLPE [10]; [18]): 80%; activity LOLPE (LOLPE [10]; [19]): 0%; activity AVEFA (AVEFA [11]; [18]): 80%; activity AVEFA (AVEFA [11]; [19]): 10%; activity POAAN (POAAN [12]; Incorporation): 85%; activity POAAN (POAAN [12]; PE application): 35%
COc1nc(C)nc(NC(=O)NS(=O)(=O)c2cc(I)ccc2C(=O)O)n1 [iodosulfuron]				50%	98%							40%	90%								
CC(C)N(C(=O)COc1nnc(C(F)(F)F)s1)c1ccc(F)cc1 [(A) flufenacet, N-(4-fluorophenyl)-N-(1-methylethyl)-2-[[5-(trifluoromethyl)-1,3,4-thiadiazol-2-yl]oxy]acetamide]	30%	30%	60%	10%	85%	80%	0%	89%	0%	80%	78%	0%	0%	49%	35%	60%	85%	50%	65%	70%	Difference Δ^D activity resistant to activity sensitive, STEME (STEME): Δ^D ± 0%; activity LOLPE (LOLPE [10]; [18]): 90%; activity LOLPE (LOLPE [10]; [19]): 80%; activity AVEFA (AVEFA [11]; [18]): 80%; activity AVEFA (AVEFA [11]; [19]): 70%; activity POAAN (POAAN [12]; Incorporation): 90%; activity POAAN (POAAN [12]; PE application): 70%
CSc1nnc(C(C)(C)C)c(=O)n1N [(C) metribuzin, 4-amino-6-(1,1-dimethylethyl)-3-(methylthio)-1,2,4-triazon-5(4H)-one]	100%	70%	79%	70%	70%	0%	15%	75%	5%	55%	48%	98%	100%	0%	60%	79%	30%	30%	75%	100%	activity HORVS (crop plant) (HORVS [13]): 70%; activity HORVS (crop plant) (HORVS [14]): 50%; activity HORVS IU soil (crop plant) (HORVS [15]; IU soil): 0%; Difference of the soil types, HORVS (HORVS [15]; IU/EC73 soil vs IU soil): 0%; activity HORVS IU/EC73 soil (crop plant) (HORVS [15]; IU/EC73 soil): 0%; Difference Δ^D activity resistant to activity sensitive, LOLSS (LOLSS): Δ^D ± 0%; Difference of the soil types Δ^D, MATCH (MATCH [3]; IU/EC73 soil vs IU soil): Δ^D + 5%; activity TRZAS (crop plant) (TRZAS [16]; Incorporation): 100%; activity TRZAS (crop plant) (TRZAS [16]; PE application): 65%; activity LOLPE (LOLPE [10]; [18]): 70%; activity LOLPE (LOLPE [10]; [19]): 0%; activity TRZAS (crop plant) (TRZAS [17]): 30%; activity AVEFA (AVEFA [11]; [18]): 10%; activity AVEFA (AVEFA [11]; [19]): 0%; activity POAAN (POAAN [12]; Incorporation): 68%; activity POAAN (POAAN [12]; PE application): 0%
